Assay [1] concerns the target T1, Nav 1.7 (Homo sapiens, UniProt Q15858).
T1 construct: expressed in transfected cells
Briefly: Nav 1.7 activity in Table of Examples, no platform marker printed. It counts as cell-based. The following applies: no marker a/b/c printed in the cell. An excerpt: (§1) a.IonWork Quattro data, b=Manual patch clamp data, c=Automated patch clamp data M=Method

Assay [2] concerns the target T1, Nav 1.7. Briefly: Whole-cell voltage clamp electrophysiology, IonWorks Quattro (marker a in Table of Examples). It counts as cell-based. Conditions: marker a: IonWork Quattro data; read-out: Nav 1.7 activity.
From the text: as §1
Whole-Cell Voltage Clamp Electrophysiology Assay
(§2) Patch-clamp electrophysiology is considered the gold standard technique for investigation of ion channel function and pharmacology. Using this method, sodium channel currents can be measured in cells, which stably (or transiently) express the sodium channel subtype of interest. Application of compounds during such experiments provides a functional measure of the activity and potency of compounds affecting the ion channel of interest.
(§3) Electrophysiological studies can be performed using automated or manual patch-clamp techniques. Automated patch-clamp instruments suitable for this work include the Ion Works HT (MDS), Ion Works Quattro (MDS), PatchLiner (Nanion technologies), Port-A-Patch (Nanion technologies), QPatch (Sophion) or any other suitable platform.
(§4) For recording in automated patch-clamp instruments, cells expressing the voltage-gated sodium channel subtype of interest are dispensed in appropriate chips (plates with more than one recording chambers each containing one or more apertures to generate whole-cell patches), as provided by the manufacturer. Typically, the whole-cell perforated patch configuration is used for probing the pharmacology of compounds in automated patch-clamp electrophysiology on sodium channels. Extracellular and intracellular buffers for such experiments are composed according to the literature, or according to the instructions provided by the manufacturer of the instruments. Test solutions, which contain the compounds to be tested, are applied to the cells expressing the sodium channel of interest by a pipetting system, typically integrated into the robots.
(§5) A suitable voltage stimulus protocol is used to activate voltage-gated sodium channel proteins of interest. A typical stimulus protocol may consist of sweeps of sequential voltage pulses starting from a holding potential (i.e. −65 mV), to a more positive and depolarising test pulse potential (i.e. −10 mV) and finally to a more negative and hyperpolarising potential (i.e. −100 mV). According to the biophysics of the voltage-gated ion channel of interest and interest in channel configuration the voltages and durations of the pulses as well as the overall frequency of sweeps applied might vary. Accordingly, a stimulus protocol was designed to assess compounds due to their potential to block NaV1.7 channels primarily in inactivated state. Selectivity over other voltage-gated sodium channel members was assessed by protocols that reflect the native function of the channels (i.e. heart rate or firing of neurons).
A general note: The patch-clamp technique gives a direct electrical read-out from membranes.

For assay [3], the target named is T1, Nav 1.7. Briefly: Whole-cell voltage clamp electrophysiology, automated patch clamp (marker c in Table of Examples). It counts as cell-based. The following applies: marker c: Automated patch clamp data; read-out: Nav 1.7 activity. The gist of the method:
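A voltage protocol weighted toward inactivated-state block was used to test compounds on stably expressing cells, with pulses from −65 mV holding to −10 mV test and −100 mV. Currents came from whole-cell automated patch-clamp recordings, either IonWorks Quattro or other automated instruments, usually in perforated-patch mode.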

For assay [4], the target named is T2, Nav1.5 (Homo sapiens, UniProt Q14524).
T2 construct: expressed in transfected cells
Briefly: Inhibition of Nav1.5 as measured using QPatch. The class given is cell-based.
From the text: as §2, §3, §4, §5
Inhibition of Nav1.5 by Compounds of formula (I) as measured using QPatch

Assay [5] has as its system inflammatory pain induced by intraplantar injection of Complete Freund's Adjuvant. Briefly: FCA (Freund's Complete Adjuvant) test, model of inflammatory pain. Conditions: rat, tested 72 h post FCA injection. The class given is in vivo. Here is the method:
Compounds of formula (I) may show analgesic activity in the FCA (Freund's Complete Adjuvant) test in the rat, a model of inflammatory pain which is induced by intraplantar injection of Complete Freund's Adjuvant (Stein et al. Pharmac. Biochem. Behav., 1988, 31, 445-451). […] Thus, the local anesthetic effect may not mask the analgesic properties of the compounds (Scott et al., British Journal of Anaesthesia, 1988, 61, 165-8). […] All compounds were tested 72 h post FCA injection.

Assay [6] addresses T1, Nav 1.7. Briefly: Whole-cell voltage clamp electrophysiology, manual patch clamp (marker b in Table of Examples). The class given is cell-based. Conditions: marker b: Manual patch clamp data; read-out: Nav 1.7 activity. The gist of the method:
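Manual whole-cell patch clamp on cells expressing human NaV1.7, compounds applied by microperfusion. Protocol biased to inactivated-state block: holding −60 mV, hyperpolarizing step −120 mV for 100 ms, then depolarization to −20 mV for 25 ms, pulses at 0.1 Hz.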

In assay [7] the target is T2, Nav1.5. The assay can be described thus: Inhibition of Nav1.5 as measured using manual patch clamp. The class given is cell-based.
From the text: as §2
Electrophysiological studies can also be performed using the whole cell configuration of the standard manual patch clamp technique as described in the literature (e.g. Pflugers Arch., 1981, 391(2), 85-100). In this assay, cells that express the voltage-gated sodium channel protein of interest are exposed to the drugs by conventional microperfusion systems, or by a home-built perfusion system. A suitable voltage stimulus protocol is used to activate the voltage-gated sodium channels.
as §5
Electrophysiological studies can also be performed using the whole cell configuration of the standard manual patch clamp technique as described in the literature (e.g. Pflugers Arch., 1981, 391(2), 85-100). In this assay, cells that express the human voltage-gated sodium channel protein of interest are exposed to the drugs by conventional microperfusion systems, or by a home-built perfusion system. A suitable voltage stimulus protocol is used to activate the voltage-gated sodium channels. A suitable voltage stimulus protocol may consist of sequential voltage pulses from a holding potential, each first hyperpolarizing the cell, then depolarizing the channels for a brief period. A particularly suitable holding potential may be a voltage allowing a fraction of channels to remain in an inactivated state, like −60 mV. A suitable hyperpolarizing voltage and duration may be −120 mV for 100 ms, and depolarization voltage and duration may be −20 mV for 25 ms, and a suitable frequency of pulses may be 0.1 Hz, but may also have other parameters. Accordingly, a stimulus protocol was designed to assess compounds due to their potential to block NaV1.7 channels primarily in inactivated state. Selectivity over other voltage-gated sodium channel members was assessed by protocols that reflect the native function of the channels (i.e. heart rate or firing of neurons).
Inhibition of Nav1.5 by Compounds of formula (I) as measured using manual patch clamp

T1 sequence (Q15858 whole entry): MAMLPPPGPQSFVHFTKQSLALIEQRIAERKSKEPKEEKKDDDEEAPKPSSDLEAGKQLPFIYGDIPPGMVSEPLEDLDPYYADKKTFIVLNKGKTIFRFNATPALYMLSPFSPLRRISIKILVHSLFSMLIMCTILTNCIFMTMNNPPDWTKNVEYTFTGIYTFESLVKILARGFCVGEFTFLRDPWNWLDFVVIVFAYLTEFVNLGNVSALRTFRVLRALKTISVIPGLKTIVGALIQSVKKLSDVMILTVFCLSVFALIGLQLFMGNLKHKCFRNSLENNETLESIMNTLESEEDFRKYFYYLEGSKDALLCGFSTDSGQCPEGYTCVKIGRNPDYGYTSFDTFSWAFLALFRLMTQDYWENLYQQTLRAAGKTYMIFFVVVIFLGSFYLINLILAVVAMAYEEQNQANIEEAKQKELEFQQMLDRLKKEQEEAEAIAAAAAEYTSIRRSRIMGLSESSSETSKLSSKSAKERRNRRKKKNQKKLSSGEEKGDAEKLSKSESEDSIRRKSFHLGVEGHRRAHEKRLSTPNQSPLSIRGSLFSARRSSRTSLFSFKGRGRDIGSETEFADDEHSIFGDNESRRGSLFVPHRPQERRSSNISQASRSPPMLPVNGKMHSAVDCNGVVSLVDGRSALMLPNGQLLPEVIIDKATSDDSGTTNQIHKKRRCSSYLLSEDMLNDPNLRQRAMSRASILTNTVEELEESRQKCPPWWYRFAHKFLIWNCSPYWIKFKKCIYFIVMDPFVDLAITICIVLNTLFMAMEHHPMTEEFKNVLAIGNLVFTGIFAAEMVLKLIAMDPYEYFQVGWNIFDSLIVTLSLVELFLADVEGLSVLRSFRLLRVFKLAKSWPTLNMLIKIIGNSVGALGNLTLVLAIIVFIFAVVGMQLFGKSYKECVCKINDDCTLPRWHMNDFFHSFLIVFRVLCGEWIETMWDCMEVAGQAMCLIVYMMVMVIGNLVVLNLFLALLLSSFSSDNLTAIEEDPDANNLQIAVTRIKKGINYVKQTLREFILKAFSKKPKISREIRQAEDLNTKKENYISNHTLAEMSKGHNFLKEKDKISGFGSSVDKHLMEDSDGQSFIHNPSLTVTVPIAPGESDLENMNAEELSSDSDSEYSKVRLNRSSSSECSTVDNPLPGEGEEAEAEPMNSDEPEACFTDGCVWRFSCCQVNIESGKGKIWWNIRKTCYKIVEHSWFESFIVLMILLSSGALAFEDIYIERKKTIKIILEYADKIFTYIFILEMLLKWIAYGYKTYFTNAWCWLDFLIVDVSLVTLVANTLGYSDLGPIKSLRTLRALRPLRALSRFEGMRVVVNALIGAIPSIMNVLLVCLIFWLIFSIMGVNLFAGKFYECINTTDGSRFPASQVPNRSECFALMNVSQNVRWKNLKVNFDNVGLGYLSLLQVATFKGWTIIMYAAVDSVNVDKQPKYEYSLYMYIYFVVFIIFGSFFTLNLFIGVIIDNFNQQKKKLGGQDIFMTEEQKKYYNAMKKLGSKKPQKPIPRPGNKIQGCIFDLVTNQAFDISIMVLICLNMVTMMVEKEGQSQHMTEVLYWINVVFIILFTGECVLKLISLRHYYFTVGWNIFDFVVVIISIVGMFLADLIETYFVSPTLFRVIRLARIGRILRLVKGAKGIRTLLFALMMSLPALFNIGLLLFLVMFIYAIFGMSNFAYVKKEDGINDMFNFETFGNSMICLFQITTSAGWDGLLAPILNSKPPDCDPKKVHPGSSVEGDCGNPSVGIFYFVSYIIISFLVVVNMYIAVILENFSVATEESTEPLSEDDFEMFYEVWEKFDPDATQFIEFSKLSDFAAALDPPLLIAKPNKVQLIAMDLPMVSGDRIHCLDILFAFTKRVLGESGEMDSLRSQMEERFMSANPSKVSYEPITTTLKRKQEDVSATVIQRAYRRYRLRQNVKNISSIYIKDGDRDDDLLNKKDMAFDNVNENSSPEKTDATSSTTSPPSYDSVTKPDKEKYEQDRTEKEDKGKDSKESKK
T2 sequence (Q14524 whole entry): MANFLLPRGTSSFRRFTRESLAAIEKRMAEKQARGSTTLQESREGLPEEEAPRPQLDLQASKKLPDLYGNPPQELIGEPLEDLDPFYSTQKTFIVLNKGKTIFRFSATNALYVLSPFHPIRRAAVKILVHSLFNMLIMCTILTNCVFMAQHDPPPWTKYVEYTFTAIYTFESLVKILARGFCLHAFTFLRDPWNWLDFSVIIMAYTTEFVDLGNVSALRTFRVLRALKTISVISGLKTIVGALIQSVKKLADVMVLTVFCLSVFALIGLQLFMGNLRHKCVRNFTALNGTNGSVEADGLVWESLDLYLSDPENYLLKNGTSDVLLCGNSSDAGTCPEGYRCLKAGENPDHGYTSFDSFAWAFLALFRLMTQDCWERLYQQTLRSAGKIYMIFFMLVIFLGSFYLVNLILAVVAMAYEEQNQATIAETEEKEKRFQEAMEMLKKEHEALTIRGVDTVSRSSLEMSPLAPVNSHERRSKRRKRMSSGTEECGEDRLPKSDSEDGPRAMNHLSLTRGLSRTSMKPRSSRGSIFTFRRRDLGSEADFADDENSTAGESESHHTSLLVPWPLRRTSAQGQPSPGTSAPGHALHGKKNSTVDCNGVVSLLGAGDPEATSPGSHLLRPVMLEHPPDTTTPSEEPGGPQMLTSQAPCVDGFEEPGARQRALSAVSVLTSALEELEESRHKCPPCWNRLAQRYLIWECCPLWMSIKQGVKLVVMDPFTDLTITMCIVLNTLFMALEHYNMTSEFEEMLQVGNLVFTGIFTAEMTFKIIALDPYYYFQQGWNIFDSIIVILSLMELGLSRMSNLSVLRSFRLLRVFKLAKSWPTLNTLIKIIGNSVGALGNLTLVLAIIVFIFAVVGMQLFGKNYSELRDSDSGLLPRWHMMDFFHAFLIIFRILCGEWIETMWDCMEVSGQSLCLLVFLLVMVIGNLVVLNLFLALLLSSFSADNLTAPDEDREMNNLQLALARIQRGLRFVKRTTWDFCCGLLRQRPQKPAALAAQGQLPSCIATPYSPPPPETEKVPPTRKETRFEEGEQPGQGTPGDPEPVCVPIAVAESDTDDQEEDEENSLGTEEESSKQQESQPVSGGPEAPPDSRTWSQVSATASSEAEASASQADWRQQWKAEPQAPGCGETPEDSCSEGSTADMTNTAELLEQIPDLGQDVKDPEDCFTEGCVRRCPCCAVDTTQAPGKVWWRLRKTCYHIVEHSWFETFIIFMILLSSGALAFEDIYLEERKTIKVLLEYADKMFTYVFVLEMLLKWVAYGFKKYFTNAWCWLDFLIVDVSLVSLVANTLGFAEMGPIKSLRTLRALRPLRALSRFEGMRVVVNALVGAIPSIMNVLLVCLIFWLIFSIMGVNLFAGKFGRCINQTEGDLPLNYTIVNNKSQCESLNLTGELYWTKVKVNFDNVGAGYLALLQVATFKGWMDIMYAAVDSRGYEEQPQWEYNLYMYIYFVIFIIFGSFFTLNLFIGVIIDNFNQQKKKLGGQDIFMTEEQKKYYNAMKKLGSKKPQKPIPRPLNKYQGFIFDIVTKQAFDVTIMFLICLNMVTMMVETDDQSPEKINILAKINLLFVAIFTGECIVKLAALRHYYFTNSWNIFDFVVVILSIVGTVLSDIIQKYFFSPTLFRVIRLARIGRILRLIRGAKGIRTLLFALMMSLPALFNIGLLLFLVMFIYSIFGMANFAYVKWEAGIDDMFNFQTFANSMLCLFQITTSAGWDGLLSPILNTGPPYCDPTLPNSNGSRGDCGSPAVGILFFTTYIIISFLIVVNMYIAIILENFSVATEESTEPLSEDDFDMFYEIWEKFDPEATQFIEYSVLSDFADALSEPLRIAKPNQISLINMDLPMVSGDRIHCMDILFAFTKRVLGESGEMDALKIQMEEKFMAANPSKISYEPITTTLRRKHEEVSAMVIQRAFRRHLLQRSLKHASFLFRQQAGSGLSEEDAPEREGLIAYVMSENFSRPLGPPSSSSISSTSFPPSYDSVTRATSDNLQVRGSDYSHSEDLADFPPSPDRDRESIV

As to `CN(c1ccccc1)c1nc(N)nc(-c2noc(-c3ccc(COCC(F)(F)F)nc3)n2)n1` [Example 291, 2-N-Methyl-2-N-phenyl-6-(5-{6-[(2,2,2-trifluoroethoxy)methyl]pyridin-3-yl}-1,2,4-oxadiazol-3-yl)-1,3,5-triazine-2,4-diamine], the IC50 at Nav 1.7 [1] was found to be 73 nM.

With `Cc1ccc(-c2nc(-c3nc(N)nc(N(C)c4ccccc4)n3)no2)o1` [Example 19, N-Methyl-6-[5-(5-methyl-furan-2-yl)-[1,2,4]oxadiazol-3-yl]-N-phenyl-[1,3,5]triazine-2,4-diamine], the IC50 at Nav 1.7 [2] worked out at 61 nM. Still for that read-out and setting: the figure for `CN(c1nc(N)nc(-c2noc(-c3ccco3)n2)n1)c1cccc(F)c1F` [Example 34, 6-(5-Furan-2-yl-[1,2,4]oxadiazol-3-yl)-N-methyl-N-(2,3-difluorophenyl)-[1,3,5]triazine-2,4-diamine] is less than 500 nM; for `Nc1nc(Nc2cccc(Cl)c2)nc(-c2noc(-c3ccco3)n2)n1` [Example 32, N-(3-Chloro-phenyl)-6-(5-furan-2-yl-[1,2,4]oxadiazol-3-yl)-[1,3,5]triazine-2,4-diamine] it is less than 500 nM. In the case of `CN(c1ccccc1)c1nc(N)nc(-c2noc(C(=O)NC3CCCC3)n2)n1` [Example 72, 3-[4-Amino-6-(methyl-phenyl-amino)-[1,3,5]triazin-2-yl]-[1,2,4]oxadiazole-5-carboxylic acid cyclopentylamide], the IC50 worked out at 288 nM on Nav 1.7 [3] and 5960 nM at Nav1.5 [4]. Take `CN(c1ccccc1)c1nc(N)nc(-c2noc(-c3ccc(OCC(F)(F)F)nc3)n2)n1` [Example 67, N-Methyl-N-phenyl-6-{5-[6-(2,2,2-trifluoroethoxy)-pyridin-3-yl]-[1,2,4]oxadiazol-3-yl}-[1,3,5]triazine-2,4-diamine]: the “analgesic efficacy in FCA test” value in assay [5] (3 mg/kg p.o.) was “efficacious”. Further, the results for the IC50 at Nav 1.7 [6] and against Nav1.5 [4] were 110 nM and 7060 nM, respectively. In the case of `Nc1nc(Nc2ccccc2)nc(-c2noc(-c3nccs3)n2)n1` [Example 130, N-Phenyl-6-(5-thiazol-2-yl-[1,2,4]oxadiazol-3-yl)-[1,3,5]triazine2,4-diamine], the “analgesic efficacy in FCA test” value in assay [5] (1 mg/kg p.o.) is listed as “efficacious”. Moreover, the figures for the IC50 at Nav 1.7 [6] and against Nav1.5 [4] were 44 nM and 1670 nM, respectively. As to `CN(c1nc(N)nc(-c2noc(-c3ccco3)n2)n1)c1ccccc1Cl` [Example 17, N-(2-Chloro-phenyl)-6-(5-furan-2-yl-[1,2,4]oxadiazol-3-yl)-N-methyl-[1,3,5]triazine-2,4-diamine], the IC50 at Nav 1.7 [2] was less than 5000 nM. With `Nc1nc(Nc2ccccc2)nc(-c2noc(-c3ccccn3)n2)n1` [Example 39, N-Phenyl-6-(pyridin-2-yl-[1,2,4]oxadiazol-3-yl)-[1,3,5]triazine-2,4-diamine], the IC50 on Nav 1.7 [6] was 319 nM; on Nav1.5 [4], 891 nM. As for `Nc1nc(-c2noc(-c3ccco3)n2)nc(N2CCc3ccccc32)n1` [Example 22, 4-(2,3-Dihydro-indol-1-yl)-6-(5-furan-2-yl-[1,2,4]oxadiazol-3-yl)-[1,3,5]triazin-2-ylamine], at Nav 1.7 [2], the IC50 was less than 1000 nM. `CN(Cc1ccccc1)c1nc(N)nc(-c2noc(-c3ccco3)n2)n1` [Example 20, N-Benzyl-6-(5-furan-2-yl-[1,2,4]oxadiazol-3-yl)-N-methyl-[1,3,5]triazine-2,4-diamine]: the IC50 on Nav 1.7 [2] is less than 3000 nM. In the case of `CN(c1ccccc1)c1nc(N)nc(-c2noc(C(=O)NCc3ccccc3)n2)n1` [Example 71, 3-[4-Amino-6-(methyl-phenyl-amino)-[1,3,5]triazin-2-yl]-[1,2,4]oxadiazole-5-carboxylic acid benzylamide], the values for the IC50 at Nav 1.7 [6] and against Nav1.5 [4] were 814 nM and 3020 nM, respectively. Turning to `Nc1nc(Nc2ccccc2)nc(-c2noc(-c3ccc(OCC(F)(F)F)nc3)n2)n1` [Example 41, 2-N-Phenyl-6-{5-[6-(2,2,2-trifluoroethoxy)pyridin-3-yl]-1,2,4-oxadiazol-3-yl}-1,3,5-triazine-2,4-diamine], the IC50 on Nav 1.7 [3] turned out to be 673 nM; at Nav1.5 [4] it was 334 nM. For the molecule `CN(c1ccccc1)c1nc(N)nc(-c2noc(-c3ncccc3Br)n2)n1` [Example 43, 6-[5-(3-Bromopyridin-2-yl)-[1,2,4]oxadiazol-3-yl]-N-methyl-N-phenyl-[1,3,5]triazine-2,4-diamine], the IC50 on Nav 1.7 [3] stood at 102 nM; against Nav1.5 [4], 1030 nM.

With `COc1cccc(-c2nc(-c3nc(N)nc(N(C)c4ccccc4)n3)no2)c1` [Example 24, 6-[5-(3-Methoxy-phenyl)-[1,2,4]oxadiazol-3-yl]-N-methyl-N-phenyl-[1,3,5]triazine-2,4-diamine], the IC50 on Nav 1.7 [2] was less than 500 nM. With `Cc1ccccc1N(C)c1nc(N)nc(-c2noc(-c3ccco3)n2)n1` [Example 18, 6-(5-Furan-2-yl-[1,2,4]oxadiazol-3-yl)-N-methyl-N-o-tolyl-[1,3,5]triazine-2,4-diamine], the IC50 on Nav 1.7 [2] was less than 5000 nM.

As for `CN(c1ccccc1)c1nc(N)nc(-c2noc(-c3nccs3)n2)n1` [Example 125, N-Methyl-N-pheny!-6-(5-thiazol-2-yl-[1,2,4]oxadiazol-3-yl)-[1,3,5]triazine-2,4-diamine], the IC50 against Nav1.5 [7] was found to be 917 nM; at Nav 1.7 [6] it was 560 nM. The “analgesic efficacy in FCA test” value in assay [5] (1 mg/kg p.o.) is reported as “efficacious”. As for `CN(c1cccc(C(F)(F)F)c1)c1nc(N)nc(-c2noc(-c3ccco3)n2)n1` [Example 33], the IC50 on Nav 1.7 [2] was less than 1000 nM.

The values are drawn from patent US8895733B2 (Novartis AG, priority 2010, dated 2014).
